Among the data in PubChem BioAssay AID743496 (The Scripps Research Institute Molecular Screening Center, 2014) are EC50 values, retold here.

Calls of active or inactive are those of the source. How the calls were made is not given here.

The test system of the assay is Ga16-expressing cells, calcium fluorescence, counterscreen for TAAR1 agonists. The experiment in a line: Ga16 cell calcium activation, analog series – fluorescence, dose response, MedChem round 1, counter-screen for TAAR1 agonist project, SAR follow-up (AID 743496). For orientation: The purpose of a counterscreen is to sort out artefacts and off-target activity.
For the molecule `O=C(CCN1CCC(O)(c2ccc(F)cc2)C1)c1ccc2c(c1)OCCO2` (stereo unspecified), the EC50 is > 29.9 µM (inactive).

For the molecule `CC(CN1CCC(c2ccccc2)C1)C(=O)c1ccc2c(c1)OCCO2` (stereo unspecified), the EC50 is > 29.9 µM (inactive).

Turning to `O=C(CCN1C[C@@H](C(=O)O)[C@H](c2cccc(F)c2)C1)NC1CC1`, the EC50 was > 29.9 µM (inactive).

Take `O=C(CCN1CCC(c2ccccc2)C1)c1ccccc1` (stereo unspecified): the EC50 was > 29.9 µM (inactive).

On to `NC(=O)CCN1C[C@H](c2ccccc2)[C@@H]2[C@H]1C1CCN2CC1`, for which the EC50 was > 29.9 µM (inactive).

As for `O=C(CCN1CCC(O)(c2ccccc2)C1)c1ccc2c(c1)OCCO2` (stereo unspecified), the EC50 was > 29.9 µM (inactive).

On to `Cc1ccc(C(=O)CCN2CCC(c3ccccc3)C2)cc1` (stereo unspecified), for which the EC50 is > 29.9 µM (inactive).

As for `CC1CN(CCC(=O)c2ccc3c(c2)OCCO3)CC1c1ccccc1` (stereo unspecified), the EC50 was > 29.9 µM (inactive).

Take `O=C(CCN1C[C@@H](C(=O)O)[C@H](c2ccccc2)C1)NC1CCCC1`: the EC50 is > 29.9 µM (inactive).

As for `O=C(CCN1C[C@@H](C(=O)O)[C@H](c2ccccc2)C1)NCc1cccs1`, the EC50 was > 29.9 µM (inactive).

Regarding `CC(CN1CCCC1Cc1ccccc1)C(=O)c1ccc2c(c1)OCCO2` (stereo unspecified), the EC50 was > 29.9 µM (inactive).

As usually defined, the EC50 is the midpoint of the concentration-response curve.
